Measurements published in patent US20150329558A1, “FUSED HETEROCYCLIC COMPOUNDS AS ION CHANNEL MODULATORS” (Gilead Sciences, Inc., priority 2011, published 2015).

Key:
[1] = Microsomal stability assay, dog; assay type: in vitro ADME; settings: metabolic stability, dog liver microsomes 0.5 mg/mL, substrate 3 uM
How it was run: (§1)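 Liver microsomes at 0.5 mg/mL protein in 100 mM KPO4 buffer, incubated with 3 uM compound and NADPH-regenerating system, run in duplicate. Samples taken at 2, 12, 25, 45 and 65 min and quenched in MeOH/ACN/water before analysis.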

[2] = Microsomal stability assay, human; assay type: in vitro ADME; settings: metabolic stability, human liver microsomes 0.5 mg/mL, substrate 3 uM
How it was run: as §1

hNav1.1 = molecular target: T1, hNav1.1 (Homo sapiens, UniProt P35498); assay: Nav1.1 use-dependent block, whole-cell voltage clamp; assay type: cell-based; settings: use-dependent block 10 Hz, read-out: NAv1.1*-CHAN TEST-UDB-10 HZ-
T1 construct: expressed in transfected cells; host or cells: HEK293, transient transfection (α1:β1:β2 = 10:1:1)

Human Nav1.2 = molecular target: T2, Human Nav1.2 (Homo sapiens, UniProt Q99250); assay: Nav1.2 use-dependent block, whole-cell voltage clamp; assay type: cell-based; settings: use-dependent block 10 Hz, read-out: NAv1.2*-CHAN TEST-UDB-10 HZ-
T2 construct: expressed in transfected cells
Description: Wild-type (WT) cDNA stably transfected in Chinese hamster ovary (CHO) cells is used to record INa. Unless otherwise noted, all reagents are purchased from Sigma-Aldrich (St Louis, Mo., U.S.A.).
Whole-cell voltage-clamp recordings are used to measure the biophysical properties of WT. Briefly, the pipette solution consists of (in mM) 110 CsF, 10 NaF, 20 CsCl, 2 EGTA, 10 HEPES, with a pH of 7.35 and osmolarity of 300 mOsmol/kg. The bath (control) solution contains in (mM): 145 NaCl, 4 KCl, 1.8 CaCl2, 1 MgCl2, 10 dextrose, 10 HEPES, with a pH of 7.35 and osmolarity of 310 mOsmol/kg. Cells are allowed to stabilize for 10 min after establishment of the whole-cell configuration before current is measured. Series resistance is compensated 90% to assure that the command potential is reached within microseconds with a voltage error <2 mV. Leak currents are subtracted by using an online P/4 procedure and all currents are low-pass Bessel filtered at 5 kHz and digitized at 50 kHz.
Tonic block of peak current is measured using a step to −10 mV (20 ms) from a holding potential of −120 mV (0.2 Hz). Use-dependent block of peak current is measured during pulse number 300 of a pulse train (−10 mV, 5 ms, 300 pulses, 10 Hz or 25 Hz) from a holding potential of −120 mV. Two sequential pulse train stimulations are averaged to obtain mean current traces for each recording condition, which are then used for offline subtraction and analysis.
For use-dependent studies, cells are stimulated with depolarizing pulse trains (−10 mV, 5 ms, 300 pulses, 10 and 25 Hz) from a holding potential of −120 mV. Currents are then normalized to the peak current recorded in response to the first pulse in each frequency train. For tonic block studies, peak current is evaluated in response to a 20 ms depolarization to −10 mV (0.2 Hz). Data analysis is performed using Clampfit 9.2 (Axon Instruments, Union City, Calif., U.S.A), Excel 2002 (Microsoft, Seattle, Wash., U.S.A.), and OriginPro 7.0 (OriginLab, Northampton, Mass., U.S.A) software. Results are presented as mean±SEM.
A stock solution of 10 mM compound of Formula I is prepared in 0.1 M HCl or DMSO. A fresh dilution of the compound of Formula I in the bath solution is prepared every experimental day and the pH is readjusted to 7.35 as necessary. The final DMSO concentration was kept at 0.1% in all solutions. Direct application of the perfusion solution to the clamped cell is achieved using the Perfusion Pencil system (Automate, Berkeley, Calif.). Direct cell perfusion is driven by gravity at a flow rate of 350 μL/min using a 250 micron tip. This system sequesters the clamped cell within a perfusion stream and enables complete solution exchange within 1 second. The clamped cell is perfused continuously starting immediately after establishing the whole-cell configuration. Control currents are measured during control solution perfusion.
Solutions are perfused for three minutes prior to current recordings to allow equilibrium (tonic) drug block. Tonic block of peak currents is measured from this steady-state condition. Three sequential current traces are averaged to obtain a mean current for each recording. The mean current traces are utilized for offline analysis. Use-dependent block of peak current is measured during pulse number 300 of the pulse train, (−10 mV, 5 ms, 300 pulses, 10 Hz) from a holding potential of −120 mV. Two sequential pulse train stimulations are averaged to obtain mean current traces for each recording condition, which are then used for offline subtraction and analysis. Where appropriate, concentration inhibition curves are fit with the Hill equation: I/Imax=1/[1+10̂(log IC50−I)*k], where IC50 is the concentration that produces half inhibition and k is the Hill slope factor.

T2 sequence (Q99250 whole entry): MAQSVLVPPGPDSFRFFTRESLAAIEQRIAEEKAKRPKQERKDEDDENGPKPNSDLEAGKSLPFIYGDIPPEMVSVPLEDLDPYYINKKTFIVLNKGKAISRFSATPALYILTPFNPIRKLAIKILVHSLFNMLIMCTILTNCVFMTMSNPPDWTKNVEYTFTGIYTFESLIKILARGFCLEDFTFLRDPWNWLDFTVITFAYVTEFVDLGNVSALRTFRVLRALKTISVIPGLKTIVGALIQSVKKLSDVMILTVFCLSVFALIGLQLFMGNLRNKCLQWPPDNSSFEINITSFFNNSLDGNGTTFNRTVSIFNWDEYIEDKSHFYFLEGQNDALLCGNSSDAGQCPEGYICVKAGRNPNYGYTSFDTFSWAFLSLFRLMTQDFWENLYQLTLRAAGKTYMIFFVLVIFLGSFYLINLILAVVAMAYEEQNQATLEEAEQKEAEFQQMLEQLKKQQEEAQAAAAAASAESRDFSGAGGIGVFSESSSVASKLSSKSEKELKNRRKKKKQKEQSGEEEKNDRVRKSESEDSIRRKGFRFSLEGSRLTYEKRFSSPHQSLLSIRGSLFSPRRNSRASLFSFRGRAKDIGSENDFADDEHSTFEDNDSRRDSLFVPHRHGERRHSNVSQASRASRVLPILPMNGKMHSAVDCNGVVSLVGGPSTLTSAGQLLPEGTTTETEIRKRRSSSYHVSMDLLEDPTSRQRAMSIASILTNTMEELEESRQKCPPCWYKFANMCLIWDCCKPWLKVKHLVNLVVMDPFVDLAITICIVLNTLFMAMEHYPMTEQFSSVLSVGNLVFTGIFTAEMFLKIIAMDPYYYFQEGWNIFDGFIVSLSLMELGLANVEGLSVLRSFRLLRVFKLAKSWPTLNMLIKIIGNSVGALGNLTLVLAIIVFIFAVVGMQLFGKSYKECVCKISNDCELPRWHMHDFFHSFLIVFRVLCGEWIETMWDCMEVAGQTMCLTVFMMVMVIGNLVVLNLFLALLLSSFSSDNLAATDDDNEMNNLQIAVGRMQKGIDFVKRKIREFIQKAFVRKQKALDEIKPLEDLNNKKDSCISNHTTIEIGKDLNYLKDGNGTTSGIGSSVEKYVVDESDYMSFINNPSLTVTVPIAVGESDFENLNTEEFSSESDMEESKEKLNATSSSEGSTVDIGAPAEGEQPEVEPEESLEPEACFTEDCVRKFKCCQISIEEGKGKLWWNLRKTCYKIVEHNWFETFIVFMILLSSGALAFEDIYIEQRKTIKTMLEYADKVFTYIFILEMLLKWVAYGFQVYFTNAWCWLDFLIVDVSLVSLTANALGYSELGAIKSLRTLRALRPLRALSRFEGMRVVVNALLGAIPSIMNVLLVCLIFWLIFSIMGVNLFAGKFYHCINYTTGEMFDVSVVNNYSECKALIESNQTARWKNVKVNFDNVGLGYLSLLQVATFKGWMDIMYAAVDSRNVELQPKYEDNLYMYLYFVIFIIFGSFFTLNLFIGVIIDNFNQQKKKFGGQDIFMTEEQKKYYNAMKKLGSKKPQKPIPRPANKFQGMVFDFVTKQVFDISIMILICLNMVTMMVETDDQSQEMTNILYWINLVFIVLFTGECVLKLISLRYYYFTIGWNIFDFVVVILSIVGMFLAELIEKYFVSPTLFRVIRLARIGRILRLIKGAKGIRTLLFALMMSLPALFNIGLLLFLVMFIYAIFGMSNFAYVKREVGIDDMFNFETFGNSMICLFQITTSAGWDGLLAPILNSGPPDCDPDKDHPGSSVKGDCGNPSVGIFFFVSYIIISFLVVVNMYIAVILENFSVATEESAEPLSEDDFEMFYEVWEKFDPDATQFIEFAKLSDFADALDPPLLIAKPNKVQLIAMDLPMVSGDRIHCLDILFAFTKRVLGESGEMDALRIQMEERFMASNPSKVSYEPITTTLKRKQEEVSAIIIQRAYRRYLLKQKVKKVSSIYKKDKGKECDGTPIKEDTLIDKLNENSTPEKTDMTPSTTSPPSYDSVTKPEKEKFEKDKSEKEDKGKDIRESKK

SMILES	MS Dog THalf [1]	MS Human THalf [2]	inhibition at 1 µM (hNav1.1)	inhibition at 1 µM (Human Nav1.2)
Cc1ncc(Cn2nnc3ccc(-c4ccc(OC(F)(F)F)cc4)cc3c2=O)o1 [II-95, 3-((2-methyloxazol-5-yl)methyl)-6-(4-(trifluoromethoxy)phenyl)benzo[d][1,2,3]triazin-4(3H)-one]	169 min	280 min	-0.5%	-8.2%
O=c1c2cc(-c3ccc(OC(F)(F)F)cc3)ccc2nnn1CCOc1ncccn1 [II-32, 3-(2-(pyrimidin-2-yloxy)ethyl)-6-(4-(trifluoromethoxy)phenyl)benzo[d][1,2,3]triazin-4(3H)-one]	36 min	392 min	21%	16.9%
O=c1c2cc(-c3ccc(OC(F)(F)F)cc3)ccc2cnn1Cc1ncccn1 [III-5, 2-(pyrimidin-2-ylmethyl)-7-(4-(trifluoromethoxy)phenyl)phthalazin-1(2H)-one]	66 min	30 min	9.3%	5.5%
O=c1c2cc(-c3ccc(OC(F)(F)F)cc3)ccc2cnn1CCn1cccn1 [III-9, 2-(2-(1H-pyrazol-1-yl)ethyl)-7-(4-(trifluoromethoxy)phenyl)phthalazin-1(2H)-one]	27 min	100 min	7.1%	3.5%
N#Cc1ccnc(OCCn2nnc3ccc(-c4ccc(OC(F)(F)F)cc4)cc3c2=O)n1 [II-36, 2-(2-(4-oxo-6-(4-(trifluoromethoxy)phenyl)benzo[d][1,2,3]triazin-3(4H)-yl)ethoxy)pyrimidine-4-carbonitrile]	124 min	157 min	7.9%	10.9%
